Results published in ChEMBL document CHEMBL4392873, “Transformation of Santonin to a Naproxen Analogue with Anti-Inflammatory Activity” (J Nat Prod, 2019).

Legend:
[1] = Selectivity index, ratio of IC50 for ovine COX1 to IC50 for COX2 (unknown origin)
[2] = target: Prostaglandin G/H synthase 1 (Ovis aries) (UniProt P05979); assay: Inhibition of ovine COX1 assessed as reduction in prostaglandin E2 production at 30 uM incubated for 10 mins before arachidonic acid addition and measured after 25 mins by LC-MS/MS analysis
[3] = system: Prostaglandin G/H synthase 2; assay: Inhibition of COX2 (unknown origin) assessed as reduction in prostaglandin E2 production at 30 uM incubated for 10 mins before arachidonic acid addition and measured after 25 mins by LC-MS/MS analysis; details: Homo sapiens

For `COC(=O)[C@@H](C)c1ccc2c(C)cc(O)c(C)c2c1`, the Ratio IC50 [1] was 0.496, the inhibition [2] was 52.9% and the inhibition [3] was 21.8%.
